Experiment [1] concerns the target T1, CCKB receptor (Cavia porcellus, UniProt H0VZC5).
T1 construct: Male guinea pig brain tissues were prepared according to the modified method described by Saita et al; from tissue; host or cells: guinea pig cerebral cortex membranes
T1 sequence (H0VZC5 1-426): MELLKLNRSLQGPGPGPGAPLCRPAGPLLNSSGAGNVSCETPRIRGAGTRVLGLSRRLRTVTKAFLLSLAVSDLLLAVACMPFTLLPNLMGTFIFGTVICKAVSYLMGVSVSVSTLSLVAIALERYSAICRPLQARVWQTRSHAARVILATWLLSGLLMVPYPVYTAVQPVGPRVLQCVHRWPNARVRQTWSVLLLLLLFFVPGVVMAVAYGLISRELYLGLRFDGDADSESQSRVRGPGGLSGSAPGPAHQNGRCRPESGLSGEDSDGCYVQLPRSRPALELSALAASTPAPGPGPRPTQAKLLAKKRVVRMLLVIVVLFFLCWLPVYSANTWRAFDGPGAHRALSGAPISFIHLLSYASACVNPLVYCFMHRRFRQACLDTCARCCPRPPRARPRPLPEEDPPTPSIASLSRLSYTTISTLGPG
The experiment can be described thus: 125I-CCK-8 receptor binding assay, CCKB (guinea pig cerebral cortex membranes). The procedure:
(§1) Pharmacological Methods—^[125]I-CCK-8 Receptor Binding Assay
(§2) CCKA and CCKB receptor binding assays were performed, by using guinea pig cerebral cortex (CCKB) or rat pancreas (CCKA). Male guinea pig brain tissues were prepared according to the modified method described by Saita et al, [(1994), Characterization of YM022: its CCKB/gastrin receptor binding profile and antagonism to CCK-8-induced Ca2+mobilization., Eur. J. PharmacoL,269, 249-254]. Pancreatic membranes were prepared in a similar way but by Charpentier et al, [(1988), Cyclic cholecystokinin analogues with high selectivity for central receptors., Proc Natl Acad Sci USA, 85, 1968-1972]. For the in vivo CCK binding assay tissues were homogenised in ice cold sucrose (0.32 M, 25 ml) for 15 strokes at 500 rpm and centrifuged at 13000 rpm for 10 mins. The supernatant was re-centrifuged at 13000 rpm for 20 mins. The resulting pellet was re-dispersed to the required volume of buffer at 500 rpm and stored in aliquots at […].
(§3) Binding was achieved using a.radioligand ^125I-Bolton-Hunter labeled CCK, NEN at 25 pM. The samples were incubated {with membranes (0.1 mg/ml)} in 20 mM Hepes, 1 mM EGTA, 5 mM MgCl2, 150 mm NaCl, 0.25 mg/ml bacitracin at pH 6.5 for 2 hrs at RT and then […] by centrifugation at 1100 rpm for 5 minutes. The membrane pellets were washed twice with water and the bound radioactivity was measured in a Packard Cobra Auto-gamma counter (B5005). All binding assays were carried out with L-365, 260 (Bock, M. G., et. al., Benzodiazepine gastrin and brain cholecystokinin receptor ligands. L-365,260, J. Med. Chem. 1989, 32, 14-24) as an internal non-specific standard. Controls (no compound) were also added. All samples were made in duplicate and repeated twice. All compounds were initially screened for percentage inhibition at 20 μm.

Experiment [2] has as its target T2, CCKA receptor (Rattus norvegicus, UniProt P30551).
T2 construct: Pancreatic membranes were prepared in a similar way but by Charpentier et al; from tissue; host or cells: rat pancreas membranes
T2 sequence (P30551 1-444): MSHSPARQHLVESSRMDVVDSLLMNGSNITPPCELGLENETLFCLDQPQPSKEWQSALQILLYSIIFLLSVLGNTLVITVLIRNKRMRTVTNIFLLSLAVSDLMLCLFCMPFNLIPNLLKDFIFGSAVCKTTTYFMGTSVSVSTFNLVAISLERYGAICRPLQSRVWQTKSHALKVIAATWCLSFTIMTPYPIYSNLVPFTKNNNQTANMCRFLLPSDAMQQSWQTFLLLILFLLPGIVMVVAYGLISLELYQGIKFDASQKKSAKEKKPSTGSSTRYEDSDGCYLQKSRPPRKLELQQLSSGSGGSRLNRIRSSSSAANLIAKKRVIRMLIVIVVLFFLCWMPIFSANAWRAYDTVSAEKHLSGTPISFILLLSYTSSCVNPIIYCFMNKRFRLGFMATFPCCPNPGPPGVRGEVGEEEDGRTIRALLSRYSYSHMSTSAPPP
Nature of the experiment: 125I-CCK-8 receptor binding assay, CCKA (rat pancreas membranes). Conditions: for Ratio A/B: ratio of CCKB and CCKA IC50 values. The procedure:
as §1, §2, §3

Where [3] appears, read: Table 1, phenyl pyrazolinone ureas, guinea pig cerebral cortex, 125I-Bolton-Hunter CCK 25 pM, read-out: IC50 CCKB.
[4] abbreviates: Table 2, phenylpyrazolinone amides, guinea pig cerebral cortex, 125I-Bolton-Hunter CCK 25 pM, read-out: IC50 CCKB.
Setting [5] is: Table 2, phenylpyrazolinone amides, rat pancreas, 125I-Bolton-Hunter CCK 25 pM, read-out: IC50 CCKA.
Where [6] appears, read: Table 3, diphenyl pyrazolyl ureas, guinea pig cerebral cortex, 125I-Bolton-Hunter CCK 25 pM, read-out: IC50 CCKB.
Where [7] appears, read: Table 3, diphenyl pyrazolyl ureas, rat pancreas, 125I-Bolton-Hunter CCK 25 pM, read-out: IC50 CCKA.
Setting [8] is: Table 4, diphenyl pyrazolinone amides, guinea pig cerebral cortex, 125I-Bolton-Hunter CCK 25 pM, read-out: IC50 CCKB.
Where [9] appears, read: Table 4, diphenyl pyrazolinone amides, rat pancreas, 125I-Bolton-Hunter CCK 25 pM, read-out: IC50 CCKA.

Like-named read-outs stand apart in the source and are kept apart here.

Here are results for 29 molecules from patent US20070185115A1, “Novel ureido-and amido-pyrazolone derivatives” (Aston University, priority 2003, published 2007).

As a reminder, the IC50 is the concentration at which inhibition is half-maximal. `Cc1c(NC(=O)Nc2ccc(Cl)cc2)c(=O)n(-c2ccccc2)n1C` [Example 3, N-(4-chlorophenyl)-N′-(1,5-dihiethyl-3-oxo-2-phenyl-2,3-dihydro-1H-pyrazol-4-yl)urea]: the concentration for half-maximal inhibition (IC50) in experiment [1] (setting [3]) is 2.5 µM.
Still for that read-out and setting: the same measure for `COc1ccc(NC(=O)Nc2c(C)n(C)n(-c3ccccc3)c2=O)cc1` [Example 6]: over 10 µM; for `Cc1cccc(NC(=O)Nc2c(C)n(C)n(-c3ccccc3)c2=O)c1` [Example 8]: 5 µM; for `Cc1ccc(NC(=O)Nc2c(C)n(C)n(-c3ccccc3)c2=O)cc1` [Example 9]: over 20 µM.
As for `Cc1c(NC(=O)Nc2cccc(Cl)c2)c(=O)n(-c2ccccc2)n1C` [Example 10], the half-maximal inhibitory concentration (IC50) in experiment [1] (setting [3]) is over 10 µM.
On the same count and under the same terms, under `Cc1c(NC(=O)Nc2ccc(Br)cc2)c(=O)n(-c2ccccc2)n1C` [Example 11] stands 7 µM; under `Cc1c(NC(=O)Nc2ccccc2[N+](=O)[O-])c(=O)n(-c2ccccc2)n1C` [Example 12], over 20 µM.
The same measure, in the same setting: under `Cc1c(NC(=O)NC2CCCCC2)c(=O)n(-c2ccccc2)n1C` [Example 14] stands over 10 µM.
For `Cc1c(NC(=O)c2cc3ccccc3[nH]2)c(=O)n(-c2ccccc2)n1C` [Example 16], the IC50 in experiment [1] (setting [4]) came out at 0.9 µM; in experiment [2] (setting [5]), 0.08 µM. Also, the “Ratio A/B” value in experiment [2] (Table 2) was 11.3.
On the same counts, the results for `Cc1c(NC(=O)CCc2c[nH]c3ccccc23)c(=O)n(-c2ccccc2)n1C` [Example 17, N-(1,5-Dimethyl-3-oxo-2-phenyl-2 3dihydro-1H-pyrazol-4yl)-3-(1H-indol-3-yl)propanamide] are 4 µM, 1 µM and 4.
For `Cc1c(NC(=O)c2c[nH]c3ccccc23)c(=O)n(-c2ccccc2)n1C` [Example 18], the 50% inhibitory concentration (IC50) in experiment [1] was 15 µM; in experiment [2], 2 µM.
As to `Cc1c(NC(=O)Cc2c[nH]c3ccccc23)c(=O)n(-c2ccccc2)n1C` [Example 19], the 50% inhibitory concentration (IC50) in experiment [1] (setting [4]) is 9 µM; in experiment [2] (setting [5]) it was 2 µM.
As to `COc1cccc(NC(=O)Nc2c(C)n(-c3ccccc3)n(-c3ccccc3)c2=O)c1` [Example 21, N-(5-methyl-3-oxo-1,2-diphenyl-2,3-dihydro-1H-pyrazol-4-yl)N′-3-methoxyphenylurea], the IC50 worked out at 0.035 µM in experiment [1] (setting [6]) and 0.01 µM in experiment [2] (setting [7]).
On the same counts, the results for `Cc1cccc(NC(=O)Nc2c(C)n(-c3ccccc3)n(-c3ccccc3)c2=O)c1` [Example 22, N-(5-Methyl-3-oxo-1,2-diphenyl-2,3-dihydro-1H-pyrazol4-yl)N′-3-methylphenylurea] are 0.025 µM and 0.02 µM.
Take `Cc1c(NC(=O)Nc2ccc(Br)cc2)c(=O)n(-c2ccccc2)n1-c1ccccc1` [Example 24, N-(4-Bromophenyl)-N′-(5-methyl-3-oxo-1,2-diphenyk-2,3-dihydro-1H-pyrazol-4-yl)urea]: in experiment [1] (setting [6]), the IC50 is over 20 µM.
On the same count and under the same terms, the same measure for `Cc1c(NC(=O)Nc2ccccc2[N+](=O)[O-])c(=O)n(-c2ccccc2)n1-c1ccccc1` [Example 25, N-(5-Methyl-3-oxo-1,2-diphenyl-2,3-dihydro-1H-pyrazol-4yl)N′-2-nitrophenylurea]: 7.5 µM; for `Cc1c(NC(=O)Nc2ccccc2)c(=O)n(-c2ccccc2)n1-c1ccccc1` [Example 26, N-(5-Methyl-3oxo-1,2diphenyl-2,3-dihydro-1H-pyrazol4-yl)—N′-phenylurea]: 3 µM; for `Cc1c(NC(=O)NC2CCCCC2)c(=O)n(-c2ccccc2)n1-c1ccccc1` [Example 27]: 0.85 µM.
Still for that read-out and setting: under `COc1ccc(NC(=O)Nc2c(C)n(-c3ccccc3)n(-c3ccccc3)c2=O)cc1` [Example 29] stands over 20 µM; under `Cc1ccccc1NC(=O)Nc1c(C)n(-c2ccccc2)n(-c2ccccc2)c1=O` [Example 30], over 20 µM; under `Cc1ccc(NC(=O)Nc2c(C)n(-c3ccccc3)n(-c3ccccc3)c2=O)cc1` [Example 31], over 20 µM.
As for `Cc1c(NC(=O)Nc2ccc(Cl)cc2)c(=O)n(-c2ccccc2)n1-c1ccccc1` [Example 32], the IC50 in experiment [1] (setting [6]) was over 20 µM.
For the molecule `Cc1c(NC(=O)Nc2cccc3ccccc23)c(=O)n(-c2ccccc2)n1-c1ccccc1` [Example 34], the IC50 in experiment [1] (setting [6]) is over 20 µM.
As to `Cc1c(NC(=O)NC(C)(C)C)c(=O)n(-c2ccccc2)n1-c1ccccc1` [Example 35], the IC50 in experiment [1] (setting [6]) was found to be 1 µM.
`Cc1c(NC(=O)c2cc3ccccc3[nH]2)c(=O)n(-c2ccccc2)n1-c1ccccc1` [Example 36, N-(5-Methyl-3-oxo-1,2-diphenyl-2,3dihydro-1H-pyrazol-4yl)-1H-indole-2-carboxamide]: the values for the IC50 in experiment [1] (setting [8]) and in experiment [2] (setting [9]) were 0.03 µM and 0.02 µM, respectively. For the same molecule, the “Ratio A/B” value in experiment [2] (Table 4) is 1.5.
On the same counts, the results for `Cc1c(NC(=O)c2c[nH]c3ccccc23)c(=O)n(-c2ccccc2)n1-c1ccccc1` [Example 37, N-(5-Methyl-3-oxo-1,2-diphenyl-2,3-dihydro-1H-pyrazol-4yl)-1H-indole-3-carboxamide] are 3.5 µM, 2 µM and 1.8.
The like results for `Cc1c(NC(=O)Cc2c[nH]c3ccccc23)c(=O)n(-c2ccccc2)n1-c1ccccc1` [Example 38] were, in that order, 2.5 µM, 0.02 µM and 125.
On the same counts, the results for `Cc1c(NC(=O)CCc2c[nH]c3ccccc23)c(=O)n(-c2ccccc2)n1-c1ccccc1` [Example 39, N-(5-Methyl-3-oxo-1,2-diphenyl-2,3-dihydro-1H-pyrazol-4-yl)-3-(1H-indol-3-yl)propanamide] are 2 µM, 0.025 µM and 80.
As for `Cc1c(NC(=O)CCCc2c[nH]c3ccccc23)c(=O)n(-c2ccccc2)n1-c1ccccc1` [Example 40, N-(5Methyl-3-oxo-1,2-diphenyl-2,3-dihydro-1H-pyrazol-4yl)-4-(1H-indol-3-yl)butanamide], in experiment [2] (Table 4), the “Ratio A/B” value is reported as 1.
